These results are taken from patent US7807720B2 (priority 2007, dated 2010).

Each structure is given as a SMILES string.

In the test the target is Bacillus anthracis lethal factor protease (Bacillus anthracis, UniProt P15917). Kind of test: biochemical.
Bacillus anthracis lethal factor protease, sequence (P15917 34-809 limits assumed): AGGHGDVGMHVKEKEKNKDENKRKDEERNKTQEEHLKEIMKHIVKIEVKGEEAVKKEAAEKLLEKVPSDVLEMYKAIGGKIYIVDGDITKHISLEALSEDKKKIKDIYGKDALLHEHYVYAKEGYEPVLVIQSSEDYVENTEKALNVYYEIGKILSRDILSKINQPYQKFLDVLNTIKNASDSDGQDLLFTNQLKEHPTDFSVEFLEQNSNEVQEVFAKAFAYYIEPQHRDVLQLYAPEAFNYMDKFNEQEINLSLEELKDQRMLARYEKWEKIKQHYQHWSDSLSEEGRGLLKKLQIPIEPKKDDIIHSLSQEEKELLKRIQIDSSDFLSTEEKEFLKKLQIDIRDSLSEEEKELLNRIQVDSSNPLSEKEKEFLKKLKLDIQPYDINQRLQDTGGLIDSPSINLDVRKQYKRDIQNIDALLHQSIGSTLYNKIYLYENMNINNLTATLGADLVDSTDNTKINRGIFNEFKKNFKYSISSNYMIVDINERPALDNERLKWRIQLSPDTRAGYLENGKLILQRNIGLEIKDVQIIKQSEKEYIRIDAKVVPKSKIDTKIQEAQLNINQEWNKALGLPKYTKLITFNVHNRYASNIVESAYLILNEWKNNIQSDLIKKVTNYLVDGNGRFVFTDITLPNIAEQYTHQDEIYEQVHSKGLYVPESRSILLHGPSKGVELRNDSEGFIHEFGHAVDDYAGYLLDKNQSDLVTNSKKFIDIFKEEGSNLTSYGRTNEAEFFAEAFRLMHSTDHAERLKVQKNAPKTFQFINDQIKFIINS
By Ki is commonly meant a measure of affinity in units of concentration, obtained from inhibition or displacement. Low values mean tighter binding, high ones weaker binding. For `CCCC[C@@H](Cc1ccccc1)C(=O)NO` (stereo in doubt) [Compound 167550, 2-Benzyl-hexanoic acid hydroxyamide], affinity was put at a Ki of 65200 nM. That is a double-digit micromolar value. With `Cc1cc(CC(CCN(C)CCCc2ccc(F)cc2)C(=O)NO)cc(C)c1F` (stereo in doubt) [Compound 168172, (S)-2-(4-Fluoro-3,5-dimethyl-benzyl)-4-{[3-(4-fluoro-phenyl)-propyl]-methyl-amino}-N-hydroxy-butyramide] the figure was 290 nM; with `CCCCC(Cc1ccc(F)c(C)c1)C(=O)NO` (centres unmarked) [Compound 167266, 2-(4-Fluoro-3-methyl-benzyl)-hexanoic acid hydroxyamide], 2300 nM. In turn, `CCCCC(Cc1cc(C)c(F)c(C)c1)C(=O)NO` (centres unmarked) [Compound 167533, 2-(4-Fluoro-3,5-dimethyl-benzyl)-hexanoic acid hydroxyamide] returned a Ki of 1200 nM. `Cc1cc(CC(C(=O)NO)c2ccc(Br)cc2)cc(C)c1F` (centres unmarked) [Compound 167856, 2-(4-Bromo-phenyl)-3-(4-fluoro-3,5-dimethyl-phenyl)-N-hydroxy-propionamide]: affinity was put at a Ki of 620 nM. `Cc1cc(CCC(=O)NO)cc(C)c1F` [Compound 167857, 3-(4-Fluoro-3,5-dimethyl-phenyl)-N-hydroxy-propionamide]: the Ki amounted to 1340 nM. Against the preceding molecule, the Ki is about 2.2-fold higher. With `Cc1cc(CC(C)C(=O)NO)cc(C)c1F` (centres unmarked) [Compound 167858, 2-(4-fluoro-3,5-dimethylbenzyl)-N-hydroxypropanamide] the figure was 400 nM. For `Cc1cc(CC(C#N)C(=O)NO)cc(C)c1F` (centres unmarked) [Compound 167914, 2-Cyano-3-(4-fluoro-3,5-dimethyl-phenyl)-N-hydroxy-propionamide] the value was 47500 nM; for `Cc1cc(C[C@H](C(=O)NO)c2ccc(Br)cc2)cc(C)c1F` [Compound 167973, (S)-2-(4-Bromo-phenyl)-3-(4-fluoro-3,5-dimethyl-phenyl)-N-hydroxy-propionamide], 5700 nM.

As to `Cc1cc(C[C@@H](C(=O)NO)c2ccc(Br)cc2)cc(C)c1F` [Compound 168009, (R)-2-(4-Bromo-phenyl)-3-(4-fluoro-3,5-dimethyl-phenyl)-N-hydroxy-propionamide], the Ki was found to be 770 nM.

As to `Cc1cc(C[C@H](CCC/C=C/C(C)C)C(=O)NO)cc(C)c1F` [Compound 168023, (S)-2-(4-Fluoro-3,5-dimethyl-benzyl)-8-methyl-non-6-enoic acid hydroxyamide], the Ki came out at 1970 nM.

Consider `Cc1cc(C[C@H](CCCCCC(C)C)C(=O)NO)cc(C)c1F` [Compound 168031, (S)-2-(4-Fluoro-3,5-dimethyl-benzyl)-8-methyl-nonanoic acid hydroxyamide], for which the Ki came out at 2660 nM. This Ki and that of the molecule before are within 1.5-fold of each other. In turn, `Cc1cc(CNCCCC[C@@H](Cc2cc(C)c(F)c(C)c2)C(=O)NO)ccc1F` [Compound 168050, (S)-2-(4-Fluoro-3,5-dimethyl-benzyl)-6-(4-fluoro-3-methyl-benzylamino)-hexanoic acid hydroxyamide] displayed a Ki of 74 nM. With `Cc1cc(C[C@@H](CCC/C=C/C(C)C)C(=O)NO)cc(C)c1F` [Compound 168051, (R)-2-(4-Fluoro-3,5-dimethyl-benzyl)-8-methyl-non-6-enoic acid hydroxyamide] the figure was 51600 nM; with `Cc1cc(C[C@@H](CCCCCC(C)C)C(=O)NO)cc(C)c1F` [Compound 168052, (R)-2-(4-Fluoro-3,5-dimethyl-benzyl)-8-methyl-nonanoic acid hydroxyamide], 300000 nM; with `Cc1cc(C[C@H](CCCCNCCc2ccc(F)cc2)C(=O)NO)cc(C)c1F` [Compound 168122, (S)-2-(4-Fluoro-3,5-dimethyl-benzyl)-6-[2-(4-fluoro-phenyl)-ethylamino]-hexanoic acid hydroxyamide], 65 nM. With `Cc1cc(C[C@H](CCCCNCCCc2ccc(F)cc2)C(=O)NO)cc(C)c1F` [Compound 168123, (S)-2-(4-Fluoro-3,5-dimethyl-benzyl)-6-[3-(4-fluoro-phenyl)-propylamino]-hexanoic acid hydroxyamide] the figure was 47 nM; with `Cc1cc(CCCCCC[C@@H](Cc2cc(C)c(F)c(C)c2)C(=O)NO)ccc1F` [Compound 168124, (S)-2-(4-Fluoro-3,5-dimethyl-benzyl)-8-(4-fluoro-3-methyl-phenyl)-octanoic acid hydroxyamide], 10300 nM. For `Cc1cc(C[C@H](CCCCNCc2ccc(Cl)cc2)C(=O)NO)cc(C)c1F` [Compound 168125, (S)-6-(4-Chloro-benzylamino)-2-(4-fluoro-3,5-dimethyl-benzyl)-hexanoic acid hydroxyamide] the value was 190 nM; for `Cc1cc(C[C@H](CCCCN(C)Cc2ccc(F)cc2)C(=O)NO)cc(C)c1F` [Compound 168126, (S)-6-[(4-Fluoro-benzyl)-methyl-amino]-2-(4-fluoro-3,5-dimethyl-benzyl)-hexanoic acid hydroxyamide], 550 nM; for `Cc1cc(C[C@H](CCCCNc2ccc(F)cc2)C(=O)NO)cc(C)c1F` [Compound 168132, (S)-2-(4-Fluoro-3,5-dimethyl-benzyl)-6-(4-fluoro-phenylamino)-hexanoic acid hydroxyamide], 2240 nM.

As to `Cc1cc(CCCCCC[C@@H](Cc2ccc(Cl)cc2)C(=O)NO)ccc1F` [Compound 168134, (S)-2-(4-Chloro-benzyl)-8-(4-fluoro-3-methyl-phenyl)-octanoic acid hydroxyamide], the Ki turned out to be 64500 nM.

On to `Cc1cc(CNCCCC[C@@H](Cc2ccc(F)c(C)c2)C(=O)NO)ccc1F` [Compound 168139, (S)-2-(4-Fluoro-3-methyl-benzyl)-6-(4-fluoro-3-methyl-benzylamino)-hexanoic acid hydroxyamide], for which the Ki is 280 nM.

As to `Cc1cc(C[C@H](CCCCNCc2cccc(-c3ccccc3)c2)C(=O)NO)ccc1F` [Compound 168140, (S)-6-[(Biphenyl-3-ylmethyl)-amino]-2-(4-fluoro-3-methyl-benzyl)-hexanoic acid hydroxyamide], the Ki amounted to 700 nM. `Cc1cc(COCCCC[C@@H](Cc2cc(C)c(F)c(C)c2)C(=O)NO)ccc1F` [Compound 168141, (S)-2-(4-fluoro-3,5-dimethylbenzyl)-6-(4-fluoro-3-methylbenzyloxy)-N-hydroxyhexanamide]: the Ki was 3600 nM. For `Cc1cc(C[C@H](CCCCNCc2ccc3c(c2)OCO3)C(=O)NO)cc(C)c1F` [Compound 168148, (S)-6-[(Benzo[1,3]dioxol-5-ylmethyl)-amino]-2-(4-fluoro-3,5-dimethyl-benzyl)-hexanoic acid hydroxyamide] the value was 220 nM; for `Cc1cc(C[C@H](CCCCNCc2ccccc2)C(=O)NO)cc(C)c1F` [Compound 168149, (S)-6-Benzylamino-2-(4-fluoro-3,5-dimethyl-benzyl)-hexanoic acid hydroxyamide], 130 nM. Consider `Cc1cc(CCCN(C)CC[C@@H](Cc2ccc(Cl)cc2)C(=O)NO)ccc1F` [Compound 168150, 2R-(4-Chloro-benzyl)-4-{[3-(4-fluoro-3-methyl-phenyl)-propyl]-methyl-amino}-N-hydroxy-butyramide], for which the Ki amounted to 1750 nM. With `Cc1cc(CCCN(C)CC[C@@H](Cc2ccc(Cl)cc2)C(=O)NO)cc(C)c1F` [Compound 168156, 2R-(4-Chloro-benzyl)-4-{[3-(4-fluoro-3,5-dimethyl-phenyl)-propyl]-methyl-amino}-N-hydroxy-butyramide] the figure was 3290 nM; with `Cc1ccc(CNCCCC[C@@H](Cc2cc(C)c(F)c(C)c2)C(=O)NO)o1` [Compound 168157, (S)-2-(4-Fluoro-3,5-dimethyl-benzyl)-6-[(5-methyl-furan-2-ylmethyl)-amino]-hexanoic acid hydroxyamide], 130 nM; with `O=C(NO)[C@@H](CCCCNCc1ccc(F)cc1)Cc1ccc(F)c(Cl)c1` [Compound 168164, (S)-2-(3-Chloro-4-fluoro-benzyl)-6-(4-fluoro-benzylamino)-hexanoic acid hydroxyamide], 200 nM.

As for `Cc1cc(C[C@H](CCCCNCC2CCCCC2)C(=O)NO)cc(C)c1F` [Compound 168170, (S)-6-(Cyclohexylmethyl-amino)-2-(4-fluoro-3,5-dimethyl-benzyl)-hexanoic acid hydroxyamide], affinity was put at a Ki of 400 nM.

As for `CCC(CC)CNCCCC[C@@H](Cc1cc(C)c(F)c(C)c1)C(=O)NO` [Compound 168171, (S)-6-(2-Ethyl-butylamino)-2-(4-fluoro-3,5-dimethyl-benzyl)-hexanoic acid hydroxyamide], the affinity corresponds to a Ki of 250 nM. With `Cc1cc(C[C@H](CCCCNCc2cnccn2)C(=O)NO)cc(C)c1F` [Compound 168179, (S)-2-(4-Fluoro-3,5-dimethyl-benzyl)-6-[(pyrazin-2-ylmethyl)-amino]-hexanoic acid hydroxyamide] the figure was 710 nM; with `Cc1cc(C[C@H](CCCCNCc2cc3ccccc3s2)C(=O)NO)cc(C)c1F` [Compound 168180, (S)-6-[(Benzo[b]thiophen-2-ylmethyl)-amino]-2-(4-fluoro-3,5-dimethyl-benzyl)-hexanoic acid hydroxyamide], 400 nM.
